Measurements taken from US11098032B2, “Pyran dervatives as CYP11A1 (cytochrome P450 monooxygenase 11A1) inhibitors” (ORION CORPORATION, priority 2016, dated 2021).

Biological target: T1, CYP11A1 (Homo sapiens, UniProt P05108)
T1 construct: human H295R adrenocortical carcinoma cell line was used as source of enzyme; endogenous in cells; host or cells: H295R human adrenocortical carcinoma cells
T1 sequence (P05108 40-521): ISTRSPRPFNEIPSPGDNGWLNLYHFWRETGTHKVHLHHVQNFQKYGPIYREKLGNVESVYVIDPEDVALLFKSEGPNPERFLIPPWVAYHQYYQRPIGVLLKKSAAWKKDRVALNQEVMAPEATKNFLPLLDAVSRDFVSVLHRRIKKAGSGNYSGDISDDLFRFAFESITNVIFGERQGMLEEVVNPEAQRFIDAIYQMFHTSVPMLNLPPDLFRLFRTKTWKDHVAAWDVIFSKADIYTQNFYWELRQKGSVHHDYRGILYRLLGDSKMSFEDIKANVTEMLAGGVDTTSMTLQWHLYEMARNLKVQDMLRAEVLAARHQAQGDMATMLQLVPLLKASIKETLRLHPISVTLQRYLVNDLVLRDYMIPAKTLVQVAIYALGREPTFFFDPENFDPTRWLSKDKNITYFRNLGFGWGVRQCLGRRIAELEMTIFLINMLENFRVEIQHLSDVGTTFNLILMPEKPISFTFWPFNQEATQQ
Experiment: CYP11A1 inhibition: modified isocaproic acid release assay (IARA) in H295R cells
Type: cell-based
Conditions: human H295R adrenocortical carcinoma cells treated three days, 3 nM [24,25-3H]-labelled cholesterol, 1% DMSO, 10 concentrations in duplicates; read-out: IC50 of the test compounds on CYP11A1 inhibition
Summary of the method: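 Cholesterol side-chain cleavage followed as tritiated isocaproic acid in charcoal-extracted medium, counted by scintillation. Substrate was 3 nM [24,25-3H]-cholesterol on human H295R cells exposed for three days to ten compound concentrations (duplicates, 1% DMSO); IC50 derived.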

Structure (SMILES)	IC50
CCCCCCNC(=O)c1ccc(COc2coc(CN3Cc4ccccc4C3)cc2=O)cc1 [Compound 142, N-Hexyl-4-(((6-(isoindolin-2-ylmethyl)-4-oxo-4H-pyran-3-yl)oxy)methyl)-benzamide]	150 to 300 nM
O=C(N1CCC(COc2coc(CN3Cc4ccccc4C3)cc2=O)CC1)C(F)(F)F [Compound 273, 2-(Isoindolin-2-ylmethyl)-5-((1-(2,2,2-trifluoroacetyl)piperidin-4-yl)methoxy)-4H-pyran-4-one]	150 to 300 nM
CC(C)S(=O)(=O)N1CCC(F)(COc2coc(CN3Cc4ccccc4C3)cc2=O)CC1 [Compound 236, 5-((4-Fluoro-1-(isopropylsulfonyl)piperidin-4-yl)methoxy)-2-(isoindolin-2-ylmethyl)-4H-pyran-4-one]	150 to 300 nM
CN(C)C(=O)c1ccc(COc2coc(CN3Cc4ccc(F)cc4C3)cc2=O)cc1 [Compound 127, 4-(((6-((5-Fluoroisoindolin-2-yl)methyl)-4-oxo-4H-pyran-3-yl)oxy)methyl)-N,N-dimethylbenzamide]	150 to 300 nM
CS(=O)(=O)N1CCC(COc2coc(CN3Cc4ccc(F)cc4C3)cc2=O)CC1 [Compound 186, 2-((5-Fluoroisoindolin-2-yl)methyl)-5-((1-(methylsulfonyl)piperidin-4-yl)-methoxy)-4H-pyran-4-one]	< 150 nM
O=c1cc(CN2Cc3ccccc3C2)occ1OCC1CCN(S(=O)(=O)N2CCC2)CC1 [Compound 268, 5-((1-(Azetidin-1-ylsulfonyl)piperidin-4-yl)methoxy)-2-(isoindolin-2-ylmethyl)-4H-pyran-4-one]	150 to 300 nM
O=C(N1CCOCC1)N1CCC(COc2coc(CN3Cc4ccccc4C3)cc2=O)CC1 [Compound 232, 2-(Isoindolin-2-ylmethyl)-5-((1-(morpholine-4-carbonyl)piperidin-4-yl)methoxy)-4H-pyran-4-one]	< 150 nM
NC(=O)c1ccc(COc2coc(CN3CCc4ccccc4C3)cc2=O)c(F)c1 [Compound 55, 4-(((6-((3,4-Dihydroisoquinolin-2(1H)-yl)methyl)-4-oxo-4H-pyran-3-yl)oxy)-methyl)-3-fluorobenzamide]	301 to 2000 nM
CS(=N)(=O)c1ccc(COc2coc(CN3Cc4ccc(OC(F)(F)F)cc4C3)cc2=O)cc1 (stereo not drawn) [Compound 90, 5-((4-(S-Methylsulfonimidoyl)benzyl)oxy)-2-((5-(trifluoromethoxy)isoindolin-2-yl)methyl)-4H-pyran-4-one]	< 150 nM
CCS(=O)(=O)N1CCC(COc2coc(CN3Cc4ccccc4C3)cc2=O)CC1 [Compound 188, 5-((1-(Ethylsulfonyl)piperidin-4-yl)methoxy)-2-(isoindolin-2-ylmethyl)-4H-pyran-4-one]	< 150 nM
CC1c2ccccc2CN1Cc1cc(=O)c(OCc2ccc(C(=O)N(C)C)cc2)co1 (stereo not drawn) [Compound 77, N,N-Dimethyl-4-(((6-((1-methylisoindolin-2-yl)methyl)-4-oxo-4H-pyran-3-yl)oxy)methyl)benzamide]	301 to 2000 nM
CS(=O)(=O)N1CCC(COc2coc(CN3Cc4ccc(Cl)cc4C3)cc2=O)CC1 [Compound 241, 2-((5-Chloroisoindolin-2-yl)methyl)-5-((1-(methylsulfonyl)piperidin-4-yl)-methoxy)-4H-pyran-4-one]	150 to 300 nM
CS(=O)(=O)N1CCC(COc2coc(CN3Cc4ccc(F)c(F)c4C3)cc2=O)CC1 [Compound 245, 2-((4,5-Difluoroisoindolin-2-yl)methyl)-5-((1-(methylsulfonyl)piperidin-4-yl)methoxy)-4H-pyran-4-one]	301 to 2000 nM
CS(=O)(=O)N1CCC(F)(COc2coc(CN3Cc4ccc(F)cc4C3)cc2=O)CC1 [Compound 237, 5-((4-Fluoro-1-(methylsulfonyl)piperidin-4-yl)methoxy)-2-((5-fluoroisoindolin-2-yl)methyl)-4H-pyran-4-one]	150 to 300 nM
CS(=O)(=O)N1CCC(COc2coc(CN3Cc4ccc(C(F)(F)F)cc4C3)cc2=O)CC1 [Compound 184, 5-((1-(Methylsulfonyl)piperidin-4-yl)methoxy)-2-((5-(trifluoromethyl)isoindolin-2-yl)methyl)-4H-pyran-4-one]	< 150 nM
COc1ccc2c(c1)CCN(Cc1cc(=O)c(OCc3ccc(C(C)(C)O)cc3)co1)C2 [Compound 52, 5-((4-(2-Hydroxypropan-2-yl)benzyl)oxy)-2-((6-methoxy-3,4-dihydroisoquinolin-2(1H)-yl)methyl)-4H-pyran-4-one]	301 to 2000 nM
CS(=O)(=O)c1ccc(COc2coc(CN3Cc4cc(F)c(F)cc4C3)cc2=O)cc1 [Compound 26, 2-((5,6-Difluoroisoindolin-2-yl)methyl)-5-((4-(methylsulfonyl)benzyl)oxy)-4H-pyran-4-one]	150 to 300 nM

More lines, now with the values ahead:

IC50	Structure (SMILES)
150 to 300 nM	CC(C)(O)Cc1ccc(COc2coc(CN3CCc4ccccc4C3)cc2=O)cc1 [Compound 46, 2-((3,4-Dihydroisoquinolin-2(1H)-yl)methyl)-5-((4-(2-hydroxy-2-methyl-propyl)benzyl)oxy)-4H-pyran-4-one]
< 150 nM	COC(=O)/C=C/c1ccc(COc2coc(CN3Cc4ccccc4C3)cc2=O)cc1 [Compound 2, Methyl (E)-3-(4-(((6-(isoindolin-2-ylmethyl)-4-oxo-4H-pyran-3-yl)oxy)-methyl)phenyl)acrylate]
150 to 300 nM	CS(=N)(=O)c1ccc(COc2coc(CN3Cc4ccc(F)cc4C3)cc2=O)cc1 (stereo not drawn) [Compound 88, 2-((5-Fluoroisoindolin-2-yl)methyl)-5-((4-(S-methylsulfonimidoyl)benzyl)oxy)-4H-pyran-4-one]
150 to 300 nM	COc1ccc(COc2coc(CN3CCc4ccccc4C3)cc2=O)cc1 [Compound 121, 2-((3,4-Dihydroisoquinolin-2(1H)-yl)methyl)-5-((4-methoxybenzyl)oxy)-4H-pyran-4-one]
< 150 nM	CN(CCC#N)S(=O)(=O)c1ccc(COc2coc(CN3Cc4ccccc4C3)cc2=O)cc1 [Compound 23, N-(2-Cyanoethyl)-4-(((6-(isoindolin-2-ylmethyl)-4-oxo-4H-pyran-3-yl)oxy)-methyl)-N-methylbenzenesulfonamide]
301 to 2000 nM	O=c1cc(CN2Cc3ccccc3C2)occ1OCc1ccc(Br)cc1 [Compound 58, 5-((4-Bromobenzyl)oxy)-2-(isoindolin-2-ylmethyl)-4H-pyran-4-one]
301 to 2000 nM	NS(=O)(=O)c1ccc(COc2coc(CN3Cc4ccccc4C3)cc2=O)cc1 [Compound 13, 4-(((6-(Isoindolin-2-ylmethyl)-4-oxo-4H-pyran-3-yl)oxy)methyl)benzenesulfonamide]
150 to 300 nM	O=c1cc(CN2Cc3ccccc3C2)occ1OCc1ccc(S(=O)(=O)N2CCC2)cc1 [Compound 9, 5-((4-(Azetidin-1-ylsulfonyl)benzyl)oxy)-2-(isoindolin-2-ylmethyl)-4H-pyran-4-one]
301 to 2000 nM	CS(=N)(=O)c1ccc(COc2coc(CN3CCc4ccccc4C3)cc2=O)cc1 (stereo not drawn) [Compound 87, 2-((3,4-Dihydroisoquinolin-2(1H)-yl)methyl)-5-((4-(S-methylsulfonimidoyl)-benzyl)oxy)-4H-pyran-4-one]
< 150 nM	CN=S(C)(=O)c1ccc(COc2coc(CN3Cc4ccccc4C3)cc2=O)cc1 (stereo not drawn) [Compound 92, 5-((4-(N,S-Dimethylsulfonimidoyl)benzyl)oxy)-2-(isoindolin-2-ylmethyl)-4H-pyran-4-one]
